Measurements reported in patent US20110028490A1, “4-PHENYL-PIPERAZIN-1-YL-ALKYL-BENZOIMIDAZOL-2-ONE DERIVATIVES AND THEIR USE AS MONOAMINE NEUROT[…]-UPTAKE IN-HIBITORS” (N[…]/S, priority 2008, published 2011).
Counter-ions that a name gives are not always drawn.

Tests used:
Format in all cases: biochemical
[1] = test system: dopamine (DA) reuptake in synaptosomes; assay: Inhibition of DA reuptake in synaptosomes; settings: 3H-DA, read-out: DA-uptake IC50
Method: (§1) Compounds were tested for their ability to inhibit the reuptake of the monoamine neurotransmitters dopamine (DA) noradrenaline (NA) and serotonine (5-HT) in synaptosomes as described in WO 97/16451 (NeuroSearch A/S).
(§2) The test values are given as IC50 (the concentration (μM) of the test substance which inhibits the specific binding of ^3H-DA, ^3H-NA, or ^3H-5-HT by 50%).

[2] = test system: noradrenaline (NA) reuptake in synaptosomes; assay: Inhibition of NA reuptake in synaptosomes; settings: 3H-NA, read-out: NA-uptake IC50
Method: as §1, §2

[3] = test system: serotonine (5-HT) reuptake in synaptosomes; assay: Inhibition of 5-HT reuptake in synaptosomes; settings: 3H-5-HT, read-out: 5-HT-uptake IC50
Method: as §1, §2

Compound | IC50 [1] [nM] | IC50 [2] [nM] | IC50 [3] [nM]
C=C(C)n1c(=O)n(CCN2CCN(c3ccc(Cl)c(Cl)c3)CC2)c2ccccc21 [Compound A1, 1-{2-[4-(3,4-Dichloro-phenyl)-piperazin-1-yl]-ethyl}-3-isopropenyl-1,3-dihydro-benzoimidazol-2-one fumaric acid salt] | 1100 | 1070 | 1
O=c1n(CCN2CCN(c3ccc(Cl)cc3)CC2)c2ccccc2n1C1=CCCCC1 [Compound A3, 1-{2-[4-(4-Chloro-phenyl)-piperazin-1-yl]-ethyl}-3-cyclohex-1-enyl-1,3-dihydro-benzoimidazol-2-one fumaric acid salt] | 430 | > 1000 | 22
